The first assay deals with immunologically stimulated human basophils. The assay can be described thus: Inhibition of histamine release from immunologically stimulated human basophils. It is filed as cell-based. Particulars: Leukocyte, 1 h; human leukocytes challenged with anti-IgE or antigen, 60 minutes at 37° C.; linear regression; read-out: ED50 (the concentration in μM which causes a 50% inhibition of histamine release). The protocol: The novel compounds of this invention have been tested by the procedure of Lichtenstein, L. M. and Osler, A. G., J. Exp. Med., 120, 507-530 (1964), which evaluates the ability of compounds to inhibit mediator (histamine) release from immunologically stimulated human basophils.
Eighty milliliters of blood is withdrawn from subjects with known histamine release to anti-IgE, ragweed antigen or other specific allergen, using four 20 ml heparinized tubes. This 80 ml of blood is mixed with 20 ml of saline containing 0.6 g of dextrose and 1.2 g of dextran. The blood is allowed to sediment at room temperature in two 50 ml polycarbonate centrifuge tubes until a sharp interface develops between the red cells and plasma (60-90 minutes). The plasma (top) layer from each tube is withdrawn by pipet and transferred to respective 50 ml polycarbonate tubes. The plasma is centrifuged for 8 minutes at 110X g at 4° C. The supernatant is carefully poured off as completely as possible and the cell button is resuspended in 2-3 ml of Tris-A buffer using a siliconized Pasteur pipet. The resuspension is accomplished by drawing the liquid gently in and out of the pipet, with the tip below the liquid, until an even suspension of cells is obtained. Sufficient Tris-A buffer is then added to bring the volume in the tube to about 45 ml and the tube is centrifuged at 110X g for 8 minutes at 4° C. The supernatant is poured off and the cell button is resuspended and centrifuged as described above. The supernatant is poured off and the cell button is suspended in 2-3 ml of Tris-ACM buffer to make the final volume sufficient to allow addition to the reaction tubes.
Reaction tubes containing anti-IgE or antigens, either alone or with test compound in a total volume of 0.2 ml are prepared and placed in a 37° C. bath. The cells are warmed to 37° C. and frequently swirled to ensure an even suspension, while 1.0 ml aliquots are added to each reaction tube. The tubes are then incubated for 60 minutes at 37° C., vortexing the tubes gently every 15 minutes to keep the cells evenly suspended. When the reaction is complete, the tubes are centrifuged at 4° C. for 10 minutes at 1500 rpm to sediment the cells. One ml aliquots of supernatant are transferred to 12X 75 mm polyethylene tubes and 0.2 ml of 8% perchloric acid is added to each tube. Blanks and totals are included in each test. The blanks have cells and all reagents except antigen or anti-IgE. The totals contain 0.24 ml of 8% perchloric acid, one ml of cells and 0.2 ml of buffer. All samples are then centrifuged to remove the precipitate protein.
This automated method has been described by Siraganian, R. P., in Anal. Biochem., 57, 383 (1974) and J. Immunol. Methods, 7, 283 (1975) and is based on the manual method of Shore, P. A., et al., J. Pharmacol. Exp. Ther., 217, 182 (1959).
The automated system consists of the following Technicon Autoanalyzer II components: Sampler IV, Dual-Speed Proportioning Pump III, Fluoronephelometer with a narrow pass primary filter 7-60 and a secondary filter 3-74, Recorder, and Digital Printer. The manifold used is the one described by Siraganian vide supra, with the following modifications: the dialyzer is omitted; all pumping tubes pass through a single proportioning pump with large capacity and twice the volume of sample is taken for analysis.
The automated chemistry consists of the following steps: Extraction from alkaline saline into butanol, back extraction into dilute hydrochloric acid by addition of heptane, reaction of histamine with o-phthaldialdehyde(OPT) at high pH and conversion of the OPT adduct to a stable fluorophore with phosphoric acid. The reaction product is then passed through the fluorometer. The full scale response is adjusted to 50 ng histamine base with a threshold sensitivity of approximately 0.5 ng.
The instrument blank (wash) is subtracted from the ng histamine of each sample. […]
Consider `CC(=O)Nc1nc2ccnc(-c3cccc(NS(=O)(=O)c4ccc(C)cc4)c3)n2n1` [N-[5-[3-[[(4-Methylphenyl)sulfonyl]amino]phenyl]-[1,2,4]triazolo[1,5-c]pyrimidin-2-yl]acetamide], for which the IC50 was 1.7 µM.

As to `Nc1nc2ccnc(-c3ccc(F)cc3)n2n1` [5-(4-fluorophenyl)[1,2,4]triazolo[1,5-c]pyrimidin-2-amine], the IC50 is 31 µM.

With `CN(C)C(=O)c1cccc(-c2nccc3nc(N)nn23)c1` [3-(2-Amino[1,2,4]triazolo[1,5-c]pyrimidin-5-yl)-N,N--dimethylbenzamide], the IC50 stood at 11 µM.

Consider `Nc1nc2ccnc(-c3cccc(C=O)c3)n2n1` [3-(2-Amino[1,2,4]triazolo[1,5-c]pyrimidin-5-yl)benzaldehyde], for which the IC50 amounted to 0.8 µM.

`Nc1nc2ccnc(-c3ccncc3)n2n1` [5-(4-pyridinyl)[1,2,4]triazolo[1,5-c]pyrimidin-2-amine]: the IC50 stood at 33 µM.

Turning to `Cc1ccc(S(=O)(=O)Nc2cccc(-c3nccc4nc(N)nn34)c2)cc1` [N-[3-(2-Amino[1,2,4]triazolo[1,5-c]pyrimidin-5yl)phenyl]-4-methylbenzenesulfonamide], the IC50 worked out at 1.5 µM.

For the compound `Cc1cnc(-c2cccc([N+](=O)[O-])c2)n2nc(N)nc12` [8-Methyl-5-(3-nitrophenyl)[1,2,4]triazolo[1,5-c]pyrimidin-2-amine], the IC50 is 8.7 µM.

Turning to `Nc1nc2ccnc(-c3cc(C(F)(F)F)cc(C(F)(F)F)c3)n2n1` [5-[3,5-bis(trifluoromethyl)phenyl][1,2,4]triazolo[1,5-c]pyrimidin-2-amine], the IC50 was 0.7 µM.

Take `CC(=O)Nc1nc2ccnc(-c3cccc(C(F)(F)F)c3)n2n1`: the IC50 stood at 20 µM.

Consider `CC(=O)Nc1nc2c(C)cnc(-c3cccc([N+](=O)[O-])c3)n2n1` [N-[8-Methyl-5-(3-nitrophenyl)[1,2,4]triazolo[1,5-c]pyrimidin-2-yl]acetamide], for which the IC50 came out at 11 µM.

For `CC(=O)Nc1nc2c(C)cnc(-c3cccc(NS(=O)(=O)c4ccc(C)cc4)c3)n2n1` [N-[8-Methyl-5-[3-[[4-methylphenyl)sulfonyl]amino]phenyl][1,2,4]triazolo[1,5-c]pyrimidin-2-yl]acetamide], the IC50 was found to be 34.4 µM.

As for `Cc1cnccc1-c1nccc2nc(N)nn12` [5-(3-methyl-4-pyridinyl)[1,2,4]triazolo[1,5-c]pyrimidin-2-amine], the IC50 stood at 3.8 µM.

As to `Cc1cnc(-c2cccc(C(F)(F)F)c2)n2nc(N)nc12` [8-Methyl-5-[3-(trifluoromethyl)phenyl][1,2,4]triazolo[1,5-c]pyrimidin-2-amine], the IC50 was determined as 5.6 µM.

`Cc1cc2nc(N)nn2c(-c2cccc(C(F)(F)F)c2)n1` [7-methyl-5-[3-(trifluoromethyl)phenyl][1,2,4]triazolo[1,5-c]pyrimidin-2-amine]: the IC50 came to 100 µM.

Turning to `Nc1nc2ccnc(-c3cccc(C(Cl)Cl)c3)n2n1` [5-[3-(dichloromethyl)phenyl][1,2,4]triazolo[1,5-c]pyrimidin-2-amine], the IC50 came to 1.2 µM.

On to `Nc1nc2ccnc(-c3cccc([N+](=O)[O-])c3)n2n1` [5-(3-nitrophenyl)[1,2,4]triazolo[1,5-c]pyrimidin-2-amine], for which the IC50 came out at 3.8 µM.

For `Nc1nc2ccnc(-c3cccnc3)n2n1` [5-(3-pyridinyl)[1,2,4]triazolo[1,5-c]pyrimidin-2-amine], the IC50 came to 49.4 µM.

On to `CNc1nc2ccnc(-c3cccc(C(F)(F)F)c3)n2n1` [N-Methyl-5-[3-trifluoromethyl)phenyl][1,2,4]triazolo[1,5-c]pyrimidin-2-amine], for which the IC50 was 16 µM.

For the compound `Cc1cccc(-c2nccc3nc(N)nn23)c1` [5-(3-Methylphenyl)[1,2,4]triazolo[1,5-c]pyrimidin-2-amine], the IC50 turned out to be 7.8 µM.

On to `CCOC(=O)c1cccc(-c2nccc3nc(N)nn23)c1` [3-(2-amino[1,2,4]triazolo[1,5-c]pyrimidin-5-yl)benzoic acid, ethyl ester], for which the IC50 was found to be 11 µM.

Consider `Nc1nc2ccnc(-c3cc[n+]([O-])cc3)n2n1` [5-(4-Pyridinyl)[1,2,4]triazolo[1,5-c]pyrimidin-2-amine, pyridine-1-oxide], for which the IC50 is 4.9 µM.

Consider `Nc1nc2ccnc(-c3cccc(Br)c3)n2n1` [5-(3-bromophenyl)[1,2,4]triazolo[1,5-c]pyrimidin-2-amine], for which the IC50 was 3.3 µM.

Consider `Nc1nc2ccnc(-c3cccc(Cl)c3)n2n1` [5-(3-chlorophenyl)[1,2,4]triazolo[1,5-c]pyrimidin-2-amine], for which the IC50 worked out at 4.3 µM.

Turning to `OC(CCl)CNc1nc2ccnc(-c3cccc(C(F)(F)F)c3)n2n1` (centres unmarked) [1-Chloro-3-[[5-[3-(trifluoromethyl)phenyl][1,2,4]triazolo[1,5-c]pyrimidin-2-yl]amino]-2-propanol], the IC50 was determined as 9.5 µM.

`Nc1nc2ccnc(-c3cccc(OC(F)F)c3)n2n1` [5-[3-(difluoromethoxy)phenyl][1,2,4]triazolo[1,5-c]pyrimidin-2-amine]: the IC50 came to 3 µM.

`Nc1nc2ccnc(-c3cccc(C(F)(F)F)c3)n2n1` [5-[3-(trifluoromethyl)phenyl][1,2,4]triazolo[1,5-c]pyrimidin-2-amine]: the IC50 amounted to 2.7 µM.

As to `C#Cc1cccc(-c2nccc3nc(N)nn23)c1` [5-(3-Ethynylphenyl)[1,2,4]triazolo[1,5-c]pyrimidin-2-amine], the IC50 came out at 14 µM.

For the compound `CCOC(=O)c1ccc(-c2nccc3nc(N)nn23)cc1` [4-(2-amino[1,2,4]triazolo[1,5-c]pyrimidin-5-yl)benzoic acid, ethyl ester], the IC50 was found to be 16 µM.

A further assay has as its system female Hartley-strain guinea pigs. The assay can be described thus: Passive Anaphylaxis Test. It is filed as in vivo, guinea pig. Further details: key: If the Fisher test is significant, the compound is considered active; If the rank sum test is significant, the compound is considered to have weak activity. Particulars: oral, one hour before ovalbumin challenge; standard dose 50 mg/kg; ten animals. How it is done:
At -48 hours (relative to antigen challenge at time 0), 2 ml of saline containing 0.2-0.05 IgG hyperimmune serum (depending on batch of antibody used) was injected intraperitoneally (i.p.) into 250-300 g female Hartley-strain guinea pigs. One hour before challenge, the test compound is given to ten animals orally at 4 ml/kg of a suspension in 0.5% carboxymethylcellulose. The standard dose is 50 mg/kg. Ten control animals receive the vehicle only. The challenge consists of an intravenous injection of 0.25-2.0 mg of ovalbumin in one ml of saline. The time to the first observable symptom of anaphylaxis (normally this is a scratching of the nose) and the time to loss of righting reflex are recorded for each animal. Thirty minutes after the challenge the numbers of deceased and living animals are also recorded.
The treated and control groups are compared by a Mann-Whitney rank sum test for the times to symptom and times to collapse. In addition, a Fisher's exact test is done on the number of collapsed vs. noncollapsed for control and treated groups. If the Fisher test is significant, the compound is considered active. If the rank sum test is significant, the compound is considered to have weak activity.
Regarding `Nc1nc2ccnc(-c3ccccn3)n2n1` [5-(2-pyridinyl)[1,2,4]triazolo[1,5-c]pyrimidin-2-amine], the “activity in passive anaphylaxis test (Fisher's exact test on collapsed vs. noncollapsed)” value is reported as “active”.

Source of the values: patent publication US4579848A, “5-substituted[1,2,4]triazolo[1,5-c]pyrimidin-2-amines” (American Cyanamid Company, priority 1984, dated 1986).
